Measurements taken from patent publication US20100093702A1, “METHYLENE AMINES OF THIENO[2,3-d]PYRIMIDINE AND THEIR USE AS ADENOSINE A2a RECEPTOR ANTAGONISTS” (priority 2008, published 2010).

Assays:
[1] = biological target: T1, human A2a adenosine receptor (Homo sapiens, UniProt P29274); assay: Ligand Binding Assay for Adenosine A2a Receptor (A2A-B); conditions: HEK293 plasma membrane, radioligand [3H]CGS21680
T1 construct: purchased PerkinElmer RB-HA2a; host or cells: HEK293
Procedure: Ligand Binding Assay for Adenosine A2a Receptor
Ligand binding assay of adenosine A2a receptor was performed using plasma membrane of HEK293 cells containing human A2a adenosine receptor (PerkinElmer, RB-HA2a) and radioligand [^3H]CGS21680 (PerkinElmer, NET 1021). Assay was set up in 96-well polypropylene plate in total volume of 200 μL by sequentially adding 20 μL 1:20 diluted membrane, 130 μL assay buffer (50 mM Tris.HCl, pH7.4 10 mM MgCl2, 1 mM EDTA) containing [^3H] CGS21680, 50 μL diluted compound (4×) or vehicle control in assay buffer. Nonspecific binding was determined by […] NECA. Reaction was carried out at room temperature for 2 hours before filtering through 96-well GF/C filter plate pre-soaked in 50 mM Tris.HCl, pH7.4 containing 0.3% polyethylenimine. Plates were then washed 5 times with cold 50 mM Tris.HCl, pH7.4, dried and sealed at the bottom. Microscintillation fluid 30 μL was added to each well and the top sealed. Plates were counted on Packard Topcount for [^3H]. Data was analyzed in Microsoft Excel and GraphPad Prism programs. (Varani, K.; Gessi, S.; Dalpiaz, A.; Borea, P. A. British Journal of Pharmacology, 1996, 117, 1693)

[2] = biological target: T2, human adenosine A1 receptor (Homo sapiens, UniProt P30542); assay: Adenosine A1 Receptor Functional Assay (A1GAL2); format: cell-based; conditions: CHO-K1 cells, cAMP inducible beta-galactosidase reporter, 4 nM r-PIA/1 uM Forskolin challenge
T2 construct: expressed in transfected cells; host or cells: CHO-K1
T2 sequence (P30542 1-326): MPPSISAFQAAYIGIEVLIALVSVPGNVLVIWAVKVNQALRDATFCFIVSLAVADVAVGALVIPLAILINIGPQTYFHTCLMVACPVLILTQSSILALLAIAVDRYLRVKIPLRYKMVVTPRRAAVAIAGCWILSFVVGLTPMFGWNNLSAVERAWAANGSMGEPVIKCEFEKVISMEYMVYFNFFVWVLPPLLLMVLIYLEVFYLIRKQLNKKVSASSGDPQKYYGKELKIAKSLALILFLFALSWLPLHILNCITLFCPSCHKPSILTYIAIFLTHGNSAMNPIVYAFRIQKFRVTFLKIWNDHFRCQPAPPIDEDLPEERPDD
Procedure: Adenosine A1 Receptor Functional Assay (A1GAL2)
To initiate the functional assay, cryopreserved CHO-K1 cells overexpressing the human adenosine A1 receptor and containing a cAMP inducible beta-galactosidase reporter gene were thawed, centrifuged, DMSO containing media removed, and then seeded with fresh culture media into clear 384-well tissue culture treated plates (BD #353961) at a concentration of 10K cells/well. Prior to assay, these plates were cultured for two days at 37° C., 5% CO2, 90% Rh. On the day of the functional assay, culture media was removed and replaced with 45 uL assay medium (Hams/F-12 Modified (Mediatech # 10-080CV) supplemented w/0.1% BSA). Test compounds were diluted and 11 point curves created at a 1000× concentration in 100% DMSO. Immediately after addition of assay media to the cell plates, […] of the appropriate test compound antagonist or agonist control curves were added to cell plates using a Cartesian Hummingbird. Compound curves were allowed to incubate at room temperature on cell plates for approximately 15 minutes before addition of a 4 nM r-PIA (Sigma P4532)/1 uM Forskolin (Sigma F3917) agonist challenge (5 uL volume). A control curve of r-PIA in 1 uM Forskolin, a DMSO/Media control, and a single dose of Forskolin were also included on each plate. After additions, cell plates were allowed to incubate at 37° C., 5% CO2, 90% Rh for 5.5-6 hours. After incubation, media was removed, and cell plates were washed 1×50 uL with DPBS w/o Ca & Mg (Mediatech 21-031-CV).
Into dry wells, 20 uL of 1× Reporter Lysis Buffer (Promega E3971 (diluted in dH2O from 5× stock)) was added to each well and plates frozen at −20° C. overnight. For β-galactosidase enzyme calorimetric assay, plates were thawed out at room temperature and 20 μL 2× assay buffer (Promega) was added to each well. Color was allowed to develop at 37° C., 5% CO2, 90% Rh for 1-1.5 h or until reasonable signal appeared. The calorimetric reaction was stopped with the addition of 60 μL/well 1M sodium carbonate. Plates were counted at 405 nm on a SpectraMax Microplate Reader (Molecular Devices). Data was analyzed in Microsoft Excel and IC/EC50 curves were fit using a standardized macro.

[3] = biological target: T3, human adenosine A2a receptor (Homo sapiens, UniProt P29274); assay: Adenosine A2a Receptor Functional Assay (A2AGAL2); format: cell-based; conditions: CHO-K1 cells, cAMP inducible beta-galactosidase reporter, 15 nM NECA agonist challenge
T3 construct: expressed in transfected cells; host or cells: CHO-K1
T3 sequence (P29274 whole entry): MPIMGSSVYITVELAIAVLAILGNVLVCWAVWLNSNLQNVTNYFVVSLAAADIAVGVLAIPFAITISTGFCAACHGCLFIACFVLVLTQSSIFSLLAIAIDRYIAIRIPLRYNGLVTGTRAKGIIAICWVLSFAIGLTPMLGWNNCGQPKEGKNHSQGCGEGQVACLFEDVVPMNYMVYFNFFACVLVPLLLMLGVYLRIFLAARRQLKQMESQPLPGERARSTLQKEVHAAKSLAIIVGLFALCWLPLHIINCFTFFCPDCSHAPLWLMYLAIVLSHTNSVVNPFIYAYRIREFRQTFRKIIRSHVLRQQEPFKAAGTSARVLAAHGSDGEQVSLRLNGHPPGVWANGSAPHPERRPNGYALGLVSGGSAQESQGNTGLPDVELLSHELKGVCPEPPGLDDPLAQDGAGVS
Procedure: Adenosine A2a Receptor Functional Assay (A2AGAL2)
To initiate the functional assay, cryopreserved CHO-K1 cells overexpressing the human adenosine A2a receptor and containing a cAMP inducible beta-galactosidase reporter gene were thawed, centrifuged, DMSO containing media removed, and then seeded with fresh culture media into clear 384-well tissue culture treated plates (BD #353961) at a concentration of 10K cells/well. Prior to assay, these plates were cultured for two days at 37° C., 5% CO2, 90% Rh. On the day of the functional assay, culture media was removed and replaced with 45 uL assay medium (Hams/F-12 Modified (Mediatech # 10-080CV) supplemented w/0.1% BSA). Test compounds were diluted and 11 point curves created at a 1000× concentration in 100% DMSO. Immediately after addition of assay media to the cell plates, 50 nL of the appropriate test compound antagonist or agonist control curves were added to cell plates using a Cartesian Hummingbird. Compound curves were allowed to incubate at room temperature on cell plates for approximately 15 minutes before addition of a 15 nM NECA (Sigma E2387) agonist challenge (5 uL volume). A control curve of NECA, a DMSO/Media control, and a single dose of Forskolin (Sigma F3917) were also included on each plate. After additions, cell plates were allowed to incubate at 37° C., 5% CO2, 90% Rh for 5.5-6 hours. After incubation, media was removed, and cell plates were washed 1×50 uL with DPBS w/o Ca & Mg (Mediatech 21-031-CV). Into dry wells, 20 uL of 1× Reporter Lysis Buffer (Promega E3971 (diluted in dH2O from 5× stock)) was added to each well and plates frozen at −20° C. overnight. For β-galactosidase enzyme calorimetric assay, plates were thawed out at room temperature and 20 μL 2× assay buffer (Promega) was added to each well. Color was allowed to develop at 37° C., 5% CO2, 90% Rh for 1-1.5 h or until reasonable signal appeared. The calorimetric reaction was stopped with the addition of 60 μL/well 1M sodium carbonate. Plates were counted at 405 nm on a SpectraMax Microplate Reader (Molecular Devices). Data was analyzed in Microsoft Excel and IC/EC50 curves were fit using a standardized macro.

T1 sequence (P29274 whole entry): as above

Row | SMILES | Ki [1] [nM] | Ki [2] [nM] | Ki [3] [nM]
1 | Nc1nc(-c2ccc(Br)o2)nc2sc(CN3CCOCC3)cc12 [Example 7, 2-(5-Bromo-furan-2-yl)-6-morpholin-4-ylmethyl-thieno[2,3-d]pyrimidin-4-ylamine] | 202 | 698 | 18.3
2 | Nc1nc(-c2cccs2)nc2sc(CN3CCOCC3)cc12 [Example 26, 6-Morpholin-4-ylmethyl-2-thiophen-2-yl-thieno[2,3-d]pyrimidin-4-ylamine] | 207 | – | –
3 | Nc1nc(-c2ccco2)nc2sc(CN3CCCC3)cc12 [Example 28, 2-Furan-2-yl-6-pyrrolidin-1-ylmethyl-thieno[2,3-d]pyrimidin-4-ylamine] | 14.4 | 6430 | 28.1
4 | Nc1nc(-c2ccco2)nc2sc(CNC3CC3)cc12 [Example 29, 6-Cyclopropylaminomethyl-2-furan-2-yl-thieno[2,3-d]pyrimidin-4-ylamine] | 93.3 | 1890 | 36.2
5 | Nc1nc(-c2cccs2)nc2sc(CN3CCCC3)cc12 [Example 30, 6-Pyrrolidin-1-ylmethyl-2-thiophen-2-yl-thieno[2,3-d]pyrimidin-4-ylamine] | 139 | > 10000 | 115
6 | CCN(CC)Cc1cc2c(N)nc(-c3ccco3)nc2s1 [Example 31, 6-Diethylaminomethyl-2-furan-2-yl-thieno[2,3-d]pyrimidin-4-ylamine] | 137 | 2130 | 55.2
7 | Nc1nc(-c2ccco2)nc2sc(CNC3CCCCC3)cc12 [Example 32, 6-Cyclohexylaminomethyl-2-furan-2-yl-thieno[2,3-d]pyrimidin-4-ylamine] | 142 | 2480 | 168
8 | COCCNCc1cc2c(N)nc(-c3ccco3)nc2s1 [Example 33, 2-Furan-2-yl-6-[(2-methoxy-ethylamino)-methyl]-thieno[2,3-d]pyrimidin-4-ylamine] | 216 | – | –
9 | Cc1ccc(-c2nc(N)c3cc(CN4CCCCC4)sc3n2)o1 [Example 34, 2-(5-Methyl-furan-2-yl)-6-piperidin-1-ylmethyl-thieno[2,3-d]pyrimidin-4-ylamine] | 18.7 | 606 | 28.4
10 | Nc1nc(-c2ccc(Br)o2)nc2sc(CN3CCCC3)cc12 [Example 35, 2-(5-Bromo-furan-2-yl)-6-pyrrolidin-1-ylmethyl-thieno[2,3-d]pyrimidin-4-ylamine] | 15 | 800 | 22
11 | Cc1ccc(-c2nc(N)c3cc(CN4CCN(C)CC4)sc3n2)o1 [Example 36, 2-(5-Methyl-furan-2-yl)-6-(4-methyl-piperazin-1-ylmethyl)-thieno[2,3-d]pyrimidin-4-ylamine] | 371 | – | –
12 | Cc1ccc(-c2nc(N)c3cc(CN4CCC(O)C4)sc3n2)o1 (stereo not drawn) [Example 40, 1-[4-Amino-2-(5-methyl-furan-2-yl)-thieno[2,3-d]pyrimidin-6-ylmethyl]-pyrrolidin-3-ol] | 375 | – | –
13 | C[C@@H]1CCC[C@H](C)N1Cc1cc2c(N)nc(-c3ccc(C(F)F)o3)nc2s1 [Example 102, 2-(5-Difluoromethyl-furan-2-yl)-6-(2,6-dimethyl-piperidin-1-ylmethyl)-thieno[2,3-d]pyrimidin-4-ylamine] | – | 732 | 27.6
14 | CCN(CC)Cc1cc2c(N)nc(-c3ccc(C(F)F)o3)nc2s1 [Example 103, 6-Diethylaminomethyl-2-(5-difluoromethyl-furan-2-yl)-thieno[2,3-d]pyrimidin-4-ylamine] | – | 2090 | 131
15 | Nc1nc(-c2ccnc(Cl)c2)nc2sc(CN3CCCCC3)cc12 [Example 104, 2-(2-Chloro-pyridin-4-yl)-6-piperidin-1-ylmethyl-thieno[2,3-d]pyrimidin-4-ylamine] | – | 3860 | 691
16 | Nc1nc(-c2cccc(O)c2)nc2sc(CN3CCOCC3)cc12 [Example 106, 3-(4-Amino-6-morpholin-4-ylmethyl-thieno[2,3-d]pyrimidin-2-yl)-phenol] | – | 2440 | 816
